The target in test [1] is Activin receptor type-2B (Homo sapiens) (UniProt Q13705). As to conditions: at 10 µM.
Another test has as its target D(3) dopamine receptor (Homo sapiens, UniProt P35462). Briefly: Selectivity interaction (GPCR panel (PDSP screen)) EUB0001079a DRD3. The following applies: at 10 µM.
Test [2] has as its target T1, Serine/threonine-protein kinase haspin (Homo sapiens) (UniProt Q8TF76).
T1 sequence (whole entry): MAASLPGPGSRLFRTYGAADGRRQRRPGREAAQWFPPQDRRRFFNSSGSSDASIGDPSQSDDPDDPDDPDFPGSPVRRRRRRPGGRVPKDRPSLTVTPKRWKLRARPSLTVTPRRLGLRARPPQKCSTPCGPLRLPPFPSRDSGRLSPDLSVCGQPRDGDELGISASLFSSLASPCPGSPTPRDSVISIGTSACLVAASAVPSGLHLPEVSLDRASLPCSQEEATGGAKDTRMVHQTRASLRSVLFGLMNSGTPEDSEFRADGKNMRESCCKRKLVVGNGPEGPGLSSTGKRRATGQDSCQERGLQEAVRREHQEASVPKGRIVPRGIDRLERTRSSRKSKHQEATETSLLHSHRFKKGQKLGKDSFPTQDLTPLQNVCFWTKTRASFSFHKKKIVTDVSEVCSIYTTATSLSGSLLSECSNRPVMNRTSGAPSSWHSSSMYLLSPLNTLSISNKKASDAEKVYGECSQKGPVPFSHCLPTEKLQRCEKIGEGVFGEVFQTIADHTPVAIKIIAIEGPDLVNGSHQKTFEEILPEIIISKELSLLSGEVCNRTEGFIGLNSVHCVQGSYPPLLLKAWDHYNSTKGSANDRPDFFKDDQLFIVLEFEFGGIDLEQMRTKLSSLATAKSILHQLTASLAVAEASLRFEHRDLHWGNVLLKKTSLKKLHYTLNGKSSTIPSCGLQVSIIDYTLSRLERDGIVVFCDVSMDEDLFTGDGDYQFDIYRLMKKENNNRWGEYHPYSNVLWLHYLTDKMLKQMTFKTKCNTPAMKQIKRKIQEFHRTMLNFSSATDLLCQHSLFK
The test can be described thus: Selectivity interaction (KinomeScan (DiscoverX)) EUB0001079a GSG2. The following applies: at 1 µM.

The subject of test [3] is Epidermal growth factor receptor (Homo sapiens), P00533 [L858R,T790M]. The test can be described thus: (§1) Selectivity interaction (KinomeScan (DiscoverX)) EUB0000092b EGFR. The following applies: at 10 µM.
Test [4] relates to Epidermal growth factor receptor (Homo sapiens), P00533 [L858R]. The description is as §1. The following applies: at 10 µM.
Test [5] has as its system Epidermal growth factor receptor (Homo sapiens), P00533 [T790M]. Described as §1. The following applies: at 10 µM.
The test system of test [6] is Epidermal growth factor receptor (Homo sapiens), P00533 [UNDEFINED MUTATION]. The test is described as §1. As to conditions: at 10 µM.
The target of test [7] is Epidermal growth factor receptor (Homo sapiens, UniProt P00533). The description is as §1. As to conditions: at 10 µM.
The target of test [8] is Tyrosine-protein kinase Yes (Homo sapiens) (UniProt P07947). Briefly: Selectivity interaction (KinomeScan (DiscoverX)) EUB0000695a YES1. The following applies: at 100 nM.
The target in test [9] is Serine/threonine-protein kinase N1 (Homo sapiens, UniProt Q16512). The test can be described thus: Selectivity interaction (KinomeScan (DiscoverX)) EUB0000045b PKN1.
The target in test [10] is Serine/threonine-protein kinase NIM1 (Homo sapiens, UniProt Q8IY84). Briefly: Selectivity interaction (KinomeScan (DiscoverX)) EUB0000666a NIM1K. The following applies: at 10 µM.
The target of test [11] is Histone-lysine N-methyltransferase, H3 lysine-36 specific (Homo sapiens) (UniProt Q96L73). As to conditions: at 1 µM.
Test [12] has as its target Serine/threonine-protein kinase PLK2 (Homo sapiens, UniProt Q9NYY3). Briefly: Selectivity interaction (KinomeScan (DiscoverX)) EUB0000607a PLK2. As to conditions: at 10 µM.
Test [13] has as its target T2, Mitogen-activated protein kinase kinase kinase 7 (Homo sapiens) (UniProt O43318).
T2 sequence (whole entry): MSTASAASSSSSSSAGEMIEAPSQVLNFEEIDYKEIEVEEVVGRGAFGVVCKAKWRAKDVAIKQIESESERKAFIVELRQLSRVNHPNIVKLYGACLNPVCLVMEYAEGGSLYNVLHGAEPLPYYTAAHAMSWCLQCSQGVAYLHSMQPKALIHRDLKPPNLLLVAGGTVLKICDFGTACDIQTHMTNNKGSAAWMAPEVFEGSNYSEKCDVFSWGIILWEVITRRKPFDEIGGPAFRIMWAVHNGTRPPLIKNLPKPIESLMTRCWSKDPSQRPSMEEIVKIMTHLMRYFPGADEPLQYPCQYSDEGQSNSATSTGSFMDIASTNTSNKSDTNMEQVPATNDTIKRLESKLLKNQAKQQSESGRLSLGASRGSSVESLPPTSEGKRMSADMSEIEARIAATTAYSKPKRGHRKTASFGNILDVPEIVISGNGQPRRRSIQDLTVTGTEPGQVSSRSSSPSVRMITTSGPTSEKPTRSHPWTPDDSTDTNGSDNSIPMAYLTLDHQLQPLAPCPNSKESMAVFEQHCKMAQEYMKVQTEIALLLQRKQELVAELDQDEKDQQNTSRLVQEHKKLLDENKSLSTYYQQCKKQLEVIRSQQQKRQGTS
Briefly: Selectivity interaction (KinomeScan (DiscoverX)) EUB0000229b MAP3K7. As to conditions: at 10 µM.

For another test, the target named is Estrogen receptor (Homo sapiens, UniProt P03372). The test can be described thus: Selectivity interaction (Estrogen alpha receptor binding assay, human recombinant ) EUB0000877a ESR1.

Sequence of Serine/threonine-protein kinase N1 (Q16512 2-942 limits assumed): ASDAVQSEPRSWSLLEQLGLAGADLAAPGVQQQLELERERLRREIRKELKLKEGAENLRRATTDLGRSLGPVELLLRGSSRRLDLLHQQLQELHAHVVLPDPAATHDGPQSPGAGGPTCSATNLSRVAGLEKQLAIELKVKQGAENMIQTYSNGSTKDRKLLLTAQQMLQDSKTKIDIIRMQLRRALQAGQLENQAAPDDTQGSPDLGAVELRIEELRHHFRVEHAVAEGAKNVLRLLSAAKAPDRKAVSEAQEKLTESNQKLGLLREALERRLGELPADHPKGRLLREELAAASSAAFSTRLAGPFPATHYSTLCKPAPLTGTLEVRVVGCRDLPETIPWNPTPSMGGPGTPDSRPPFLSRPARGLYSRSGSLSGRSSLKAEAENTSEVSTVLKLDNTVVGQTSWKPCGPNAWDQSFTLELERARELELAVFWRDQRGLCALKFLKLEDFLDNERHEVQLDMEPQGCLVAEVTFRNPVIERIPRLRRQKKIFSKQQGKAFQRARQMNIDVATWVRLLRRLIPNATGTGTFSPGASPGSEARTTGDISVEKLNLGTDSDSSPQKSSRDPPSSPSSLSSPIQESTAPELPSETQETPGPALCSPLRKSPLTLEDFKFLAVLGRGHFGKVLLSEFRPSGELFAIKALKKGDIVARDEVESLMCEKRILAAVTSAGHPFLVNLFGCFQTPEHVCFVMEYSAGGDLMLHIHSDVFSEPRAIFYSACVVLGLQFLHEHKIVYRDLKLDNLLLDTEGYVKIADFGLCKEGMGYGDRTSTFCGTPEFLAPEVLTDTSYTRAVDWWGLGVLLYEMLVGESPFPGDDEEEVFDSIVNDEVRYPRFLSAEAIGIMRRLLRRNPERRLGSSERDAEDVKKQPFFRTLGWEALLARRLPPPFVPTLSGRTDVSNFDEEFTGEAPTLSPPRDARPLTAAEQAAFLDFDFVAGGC
Sequence of Epidermal growth factor receptor (P00533 whole entry): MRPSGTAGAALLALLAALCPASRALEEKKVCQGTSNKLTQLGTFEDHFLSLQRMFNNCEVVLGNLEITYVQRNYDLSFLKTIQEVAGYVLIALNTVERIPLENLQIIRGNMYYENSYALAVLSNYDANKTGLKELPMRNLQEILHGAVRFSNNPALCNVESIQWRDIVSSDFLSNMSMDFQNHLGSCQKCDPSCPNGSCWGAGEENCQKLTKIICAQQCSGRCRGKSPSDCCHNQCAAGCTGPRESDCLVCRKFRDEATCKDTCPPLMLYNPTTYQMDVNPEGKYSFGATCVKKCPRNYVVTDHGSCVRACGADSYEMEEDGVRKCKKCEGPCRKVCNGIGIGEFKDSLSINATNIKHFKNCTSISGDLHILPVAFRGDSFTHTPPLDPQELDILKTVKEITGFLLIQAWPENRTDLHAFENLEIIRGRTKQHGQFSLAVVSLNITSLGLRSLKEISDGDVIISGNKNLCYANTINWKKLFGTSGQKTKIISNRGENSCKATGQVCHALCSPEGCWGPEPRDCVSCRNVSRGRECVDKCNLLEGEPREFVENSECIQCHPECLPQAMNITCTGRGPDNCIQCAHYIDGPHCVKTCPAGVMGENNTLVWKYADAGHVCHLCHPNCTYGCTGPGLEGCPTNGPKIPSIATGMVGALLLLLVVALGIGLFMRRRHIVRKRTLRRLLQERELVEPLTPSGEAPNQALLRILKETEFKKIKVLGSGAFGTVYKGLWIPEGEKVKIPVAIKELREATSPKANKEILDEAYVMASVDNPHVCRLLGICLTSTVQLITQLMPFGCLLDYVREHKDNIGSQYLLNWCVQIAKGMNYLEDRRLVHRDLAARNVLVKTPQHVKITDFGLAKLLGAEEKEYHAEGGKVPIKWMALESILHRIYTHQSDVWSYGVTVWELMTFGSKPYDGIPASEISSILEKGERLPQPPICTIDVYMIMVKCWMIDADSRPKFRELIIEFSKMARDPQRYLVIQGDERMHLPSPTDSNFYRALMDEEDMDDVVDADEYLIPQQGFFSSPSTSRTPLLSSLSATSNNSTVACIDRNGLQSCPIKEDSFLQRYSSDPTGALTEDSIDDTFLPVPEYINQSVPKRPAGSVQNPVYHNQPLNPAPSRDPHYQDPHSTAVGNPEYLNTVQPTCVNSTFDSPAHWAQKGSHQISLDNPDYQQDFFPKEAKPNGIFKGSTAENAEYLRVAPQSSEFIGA
Sequence of Epidermal growth factor receptor (Homo sapiens), P00533 [UNDEFINED MUTATION] (P00533 whole entry, looked up, change not shown): as the sequence (P00533 whole entry) above
Sequence of Activin receptor type-2B (Homo sapiens) (Q13705 whole entry): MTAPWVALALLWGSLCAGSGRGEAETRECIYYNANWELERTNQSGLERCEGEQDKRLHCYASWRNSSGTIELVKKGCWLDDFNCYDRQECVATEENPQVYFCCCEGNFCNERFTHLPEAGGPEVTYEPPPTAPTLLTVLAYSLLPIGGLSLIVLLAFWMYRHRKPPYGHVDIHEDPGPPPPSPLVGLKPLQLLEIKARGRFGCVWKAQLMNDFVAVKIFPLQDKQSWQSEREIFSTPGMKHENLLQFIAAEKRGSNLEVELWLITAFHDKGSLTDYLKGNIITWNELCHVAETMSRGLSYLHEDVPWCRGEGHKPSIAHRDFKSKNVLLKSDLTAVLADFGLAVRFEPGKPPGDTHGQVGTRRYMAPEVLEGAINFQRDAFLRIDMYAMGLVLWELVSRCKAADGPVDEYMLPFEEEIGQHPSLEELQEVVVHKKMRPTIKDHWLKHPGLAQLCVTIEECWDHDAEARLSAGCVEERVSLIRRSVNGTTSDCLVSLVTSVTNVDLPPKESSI
Sequence of Serine/threonine-protein kinase PLK2 (Q9NYY3 whole entry, looked up): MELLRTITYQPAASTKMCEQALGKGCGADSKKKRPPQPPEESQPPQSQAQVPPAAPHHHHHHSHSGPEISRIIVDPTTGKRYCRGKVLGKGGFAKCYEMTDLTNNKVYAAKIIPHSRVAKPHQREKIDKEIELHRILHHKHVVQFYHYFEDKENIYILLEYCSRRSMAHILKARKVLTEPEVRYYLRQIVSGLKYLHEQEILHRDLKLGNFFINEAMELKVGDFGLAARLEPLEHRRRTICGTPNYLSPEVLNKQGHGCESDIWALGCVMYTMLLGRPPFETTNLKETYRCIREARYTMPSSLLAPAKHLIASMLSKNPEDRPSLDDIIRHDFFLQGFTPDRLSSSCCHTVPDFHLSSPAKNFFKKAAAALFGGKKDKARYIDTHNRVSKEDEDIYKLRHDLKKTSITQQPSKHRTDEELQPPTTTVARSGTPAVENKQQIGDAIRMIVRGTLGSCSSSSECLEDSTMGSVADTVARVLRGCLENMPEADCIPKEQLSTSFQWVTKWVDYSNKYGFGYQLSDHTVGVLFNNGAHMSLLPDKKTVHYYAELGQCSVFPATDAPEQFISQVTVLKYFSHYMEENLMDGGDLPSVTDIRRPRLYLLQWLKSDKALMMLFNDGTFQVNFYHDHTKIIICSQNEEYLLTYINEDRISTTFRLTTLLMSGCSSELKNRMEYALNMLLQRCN
Sequence of Serine/threonine-protein kinase NIM1 (Q8IY84 whole entry): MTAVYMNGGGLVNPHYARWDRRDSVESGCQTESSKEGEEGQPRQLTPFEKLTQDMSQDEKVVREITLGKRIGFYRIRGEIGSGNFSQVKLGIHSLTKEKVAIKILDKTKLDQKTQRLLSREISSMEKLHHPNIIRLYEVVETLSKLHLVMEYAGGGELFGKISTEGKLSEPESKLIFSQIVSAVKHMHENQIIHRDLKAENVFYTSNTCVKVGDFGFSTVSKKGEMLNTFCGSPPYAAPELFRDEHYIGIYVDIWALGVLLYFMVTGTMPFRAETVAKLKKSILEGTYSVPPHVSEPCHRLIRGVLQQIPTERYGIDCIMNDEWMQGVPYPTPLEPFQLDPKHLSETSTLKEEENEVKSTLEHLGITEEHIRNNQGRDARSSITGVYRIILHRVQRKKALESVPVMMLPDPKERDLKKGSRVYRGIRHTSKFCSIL

`CCN(CC)CCCCNc1ncc2cc(-c3cc(OC)cc(OC)c3)c(NC(=O)NC(C)(C)C)nc2n1` came in with a % of control in [1] of 100%.
Regarding `Nc1cnc(N2CCc3cc(S(=O)(=O)Nc4c(F)cc(Cl)cc4F)cc(N4CCCC4=O)c32)nc1` [TP-020n], the % of inhibition on D(3) dopamine receptor is -5.02%. For the same molecule, the % of control in test [2] was 100%.
For the molecule `CCC(=O)N1CCN(c2ccc(-n3c(=O)ccc4cnc5ccc(-c6cnc7ccccc7c6)cc5c43)cc2C(F)(F)F)CC1`, the % of control came out at 100% in test [3]; 100% in test [4]; 100% in test [5]; 100% in [6]; 85% in [7].
The molecule `Cc1cc(F)c(C(=O)Nc2cccc(-c3nncn3C(C)C)n2)cc1-n1cnc(C2CC2)c1` registered a % of control in test [8] of 73%.
Take `C=CC(=O)Nc1cc(-n2c(=O)ccc3cnc4ccc(-c5ccc(NS(C)(=O)=O)cc5)cc4c32)ccc1C`: the figures for the % of control in [9] (at 1 µM) and in test [9] (at 10 µM) were 100% and 99%, respectively.
In test [10], `O=C(NOC[C@H](O)CO)c1ccc(F)c(F)c1Nc1ccc(I)cc1F` displayed a % of control of 100%.
In the case of `CNCCN1CCC(c2cc(CN(C)C(=O)c3cccc(Oc4ccccc4)c3)ccn2)CC1`, the % activity in test [11] is more than 90%.
On to `CNC(=O)Nc1ccc(-c2nc(N3CC4CCC(C3)O4)c3cnn(C4CCC5(CC4)OCCO5)c3n2)cc1`, for which the % of control in test [12] is 100%.
For `COc1cc(N(C)c2ccnc3ccc(C(F)(F)F)cc23)cc(OC)c1OC`, the % binding in test [13] worked out at 80%.
In the case of `CCC(=O)N1CC[C@H](Nc2ncnc3c2CN(c2cnc(OC)c(C(F)(F)F)c2)CC3)C1` [LENIOLISIB], the IC50 on Estrogen receptor was more than 30 µM.

For orientation: IC50 means the concentration needed to halve the response being measured.

The values above are taken from ChEMBL document CHEMBL5465560, “Selectivity Literature for EUbOPEN Chemogenomic Library” (2024).
